Laboratory results as given in patent US11679107B2 (Eisai R&D Management Co., Ltd., priority 2018, dated 2023).
Like-named read-outs stand apart in the source and are kept apart here.

Experiments:
SF3b complexes = molecular target: T1, SF3b complexes (Homo sapiens, UniProt O75533+Q7RTV0); assay: Scintillation proximity assay (SPA) with [3H]-labelled pladienolide probe; format: binding; details: SF3B1 (WT); geometric mean; read-out: SPA-ATS GMean IC50 (nM) SF3B1 (WT)
T1 construct: endogenous in cells; host or cells: Nuclear extracts; A HeLa S3 extract preparation is described for the in vitro splicing assay
Outline: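 SF3b complexes captured from nuclear extracts on anti-SF3B1 antibody SPA beads; test compounds pre-incubated 30 min before 2.5 nM [3H]-pladienolide probe added, then 30 min incubation. Bound probe read by scintillation; values from non-linear regression of concentration–response curves.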

[1] = test system: Ad2 variant pre-mRNAs spliced in HeLa S3 nuclear extracts; assay: In vitro splicing assay (IVS), RT-qPCR of spliced product; format: biochemical; details: for IC50: geometric mean; for Ratio Ad2.1/2.2: ratio of IVS IC50 Ad2.1 to Ad2.2
Outline: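 Ad2 variant pre-mRNA (2 ng) with FTZΔi control RNA in HeLa S3 nuclear extract (8 μg) was pre-incubated with compound or DMSO for 15 min at 30 °C. Splicing ran 90 min at 30 °C after adding 0.5 mM ATP, creatine phosphate and MgCl2. Spliced product was quantified by TaqMan RT-qPCR, normalized to DMSO, and curve-fitted.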

[2] = test system: Panc 05.04 cells (SF3b K700E mutant); assay: Cell proliferation and viability, CellTiter-Glo, 72 hours; format: cell-based; details: for GI50: geometric mean
Outline: (§1)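 Cells grown in RPMI-1640 with 10% FBS (Panc line with added insulin and FBS to 15%) were exposed to an 11-point half-log dilution series, typically 10 μM-100 pM, at 0.1% final DMSO. After incubation at 37° C, 5% CO2, ATP content was measured by luminescence and normalized to a time-zero plate and DMSO wells.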

[3] = test system: NCI-H1568 cells (high MCL1); assay: as above; format: cell-based; details: for GI50: geometric mean
Outline: as §1

[4] = Ad2.1 pre-mRNA substrate, read-out: qPCR-IVS-ATS GMean IC50 (nM) Ad2.1
[5] = Ad2.2 pre-mRNA substrate, read-out: qPCR-IVS-ATS GMean IC50 (nM) Ad2.2
[6] = PANC0504.1 cells, 72 h, −100% cidal, 0% static, 100% maximal growth
[7] = Panc 05.04, read-out: CTGlo-ATS GMean GI50 (nM) 72 h PANC0504.1, PANC0504.1 cells, 72 h
[8] = NCI-H1568, read-out: CTGlo-ATS GMean GI50 (nM) 72 h NCIH1568.1, NCIH1568.1 cells, 72 h
[9] = NCIH1568.1 cells, 72 h, −100% cidal, 0% static, 100% maximal growth
[10] = 72 h, PANC0504.1, -100% = cidal, 0% = static, 100% = uninhibited growth
[11] = 72 h, NCIH1568.1, -100% = cidal, 0% = static, 100% = uninhibited growth
[12] = Panc 05.04, 72 h, read-out: CTGlo-ATS GMean GI50 (nM) 72 h PANC0504.1, PANC0504.1 cells, 72 h
[13] = NCI-H1568, 72 h, read-out: CTGlo-ATS GMean GI50 (nM) 72 h NCIH1568.1, NCIH1568.1 cells, 72 h

SMILES | IC50 (SF3b complexes) [nM] | IC50 [1, 4] [nM] | IC50 [1, 5] [nM] | CTGlo-ATS Mean MinResponse % 72 h PANC0504.1 [2, 6] [%] | GI50 [2, 7] [nM] | GI50 [3, 8] [nM] | CTGlo-ATS Mean MinResponse % 72 h NCIH1568.1 [3, 9] [%] | Ratio Ad2.1/2.2 [1] | CTGlo-ATS Mean MinResponse % 72 h PANC0504.1 [2, 10] [%] | GI50 ([2]; Panc 05.04, read-out: CTGlo-ATS GMean GI50 (nM) 72 h PANC0504.1, 72 h, PANC0504.1) [nM] | CTGlo-ATS Mean MinResponse % 72 h NCIH1568.1 [3, 11] [%] | GI50 ([3]; NCI-H1568, read-out: CTGlo-ATS GMean GI50 (nM) 72 h NCIH1568.1, 72 h, NCIH1568.1) [nM] | GI50 ([2]; Panc 05.04, 72 h, read-out: CTGlo-ATS GMean GI50 (nM) 72 h PANC0504.1, 72 h, PANC0504.1) [nM] | GI50 ([3]; NCI-H1568, 72 h, read-out: CTGlo-ATS GMean GI50 (nM) 72 h NCIH1568.1, 72 h, NCIH1568.1) [nM] | GI50 [2, 12] [nM] | GI50 [3, 13] [nM]
C/C(=C\c1cc(F)cc(N2CCN(CCO)CC2)c1)[C@H]1OC(=O)C[C@H](O)CC[C@H](C)[C@@H](OC(=O)N2CCC(N3CCCCC3)CC2)/C=C/[C@@H]1C [Compound 13] | 7.43 | 19.3 | 15.9 | −94.040 | 32.7 | 20.8 | −95.312 |  |  |  |  |  |  |  |  | 
C/C(=C\c1cccc(S(=O)(=O)N2CC(F)(F)C2)c1)[C@H]1OC(=O)C[C@H](O)CC[C@H](C)[C@@H](OC(=O)N2CCN(C)CC2)/C=C/[C@@H]1C [Compound 206, [(2S,3S,4E,6R,7S,10R)-2-[(E)-1-[3-(3,3-difluoroazetidin-1-yl)sulfonylphenyl]prop-1-en-2-yl]-10-hydroxy-3,7-dimethyl-12-oxo-1-oxacyclododec-4-en-6-yl] 4-methylpiperazine-1-carboxylate] | 1.81 | > 25000 | 113 |  |  |  |  | 221.630 | −83.659 | 62.3 | −57.585 | 72.2 |  |  |  | 
C/C(=C\c1cc(F)cc(N2CCNC2=O)c1)[C@H]1OC(=O)C[C@H](O)CC[C@H](C)[C@@H](OC(=O)N2CCN(C)CC2)/C=C/[C@@H]1C [Compound 64] | 3.08 | 116 | 24.4 | −92.050 | 7.96 | 6.5 | −66.274 |  |  |  |  |  |  |  |  | 
C/C(=C\c1cc(F)cc(N(C)C2COC2)c1)[C@H]1OC(=O)C[C@H](O)CC[C@H](C)[C@@H](OC(=O)N2CCN(C)CC2)/C=C/[C@@H]1C [Compound 169] | 1.43 | 96.6 | 19.8 | −90.232 | 8.9 | 8.26 | −66.086 |  |  |  |  |  |  |  |  | 
C/C(=C\c1cc(Cl)cc(N2CCOCC2)c1)[C@H]1OC(=O)C[C@H](O)CC[C@H](C)[C@@H](OC(=O)N2CCN(C)CC2)/C=C/[C@@H]1C [Compound 20] | 7.76 | 61.3 | 40.3 | −78.467 | 14.6 | 17.6 | −68.668 |  |  |  |  |  |  |  |  | 
C/C(=C\c1cccc(S(=O)(=O)N2CCNCC2)c1)[C@H]1OC(=O)C[C@H](O)CC[C@H](C)[C@@H](OC(=O)N2CCN(C)CC2)/C=C/[C@@H]1C [Compound 93] | 24.7 | 219 | 41.6 | −97.726 | 109 | 73.8 | −57.108 |  |  |  |  |  |  |  |  | 
C/C(=C\c1cc(F)cc(N2CCC(=O)C2)c1)[C@H]1OC(=O)C[C@H](O)CC[C@H](C)[C@@H](OC(=O)N2CCN(C)CC2)/C=C/[C@@H]1C [Compound 35] | 4.78 | 913 | 27.1 | −87.702 | 53.2 | 107 | −46.227 |  |  |  |  |  |  |  |  | 
C/C(=C\c1cncc(Cl)c1)[C@H]1OC(=O)C[C@H](O)CC[C@H](C)[C@@H](OC(=O)N2CCN(C)CC2)/C=C/[C@@H]1C [Compound 46] | 12.2 | > 25000 | 114 | 0.031 | 40 | 78.4 | −10.684 |  |  |  |  |  |  |  |  | 
C/C(=C\c1cc(F)cc(N2CCOCC2)c1)[C@H]1OC(=O)C[C@H](O)CC[C@H](C)[C@@H](OC(=O)NCCCN2CCOCC2)/C=C/[C@@H]1C [Compound 241, [(2S,3S,4E,6R,7S,10R)-2-[(E)-1-(3-fluoro-5-morpholin-4-ylphenyl)prop-1-en-2-yl]-10-hydroxy-3,7-dimethyl-12-oxo-1-oxacyclododec-4-en-6-yl] N-(3-morpholin-4-ylpropyl)carbamate] | 20.5 | > 25000 | 130 |  |  |  |  | 191.917 | −88.873 |  | −59.521 |  | 120 | 225 |  | 
C/C(=C\c1cc(F)cc(N2CCOC(C)C2)c1)[C@H]1OC(=O)C[C@H](O)CC[C@H](C)[C@@H](OC(=O)N2CCN(C)CC2)/C=C/[C@@H]1C (stereo partly shown) [Compound 70] | 1.55 | 17.6 | 16.5 | −83.969 |  |  | −77.042 |  |  |  |  |  |  |  | 5.94 | 3.37
C/C(=C\c1cc(F)cc(N(C)C)c1)[C@H]1OC(=O)C[C@H](O)CC[C@H](C)[C@@H](OC(=O)N2CCN(C)CC2)/C=C/[C@@H]1C [Compound 29] | 5.6 | > 25000 | 90.7 | −90.429 | 34.7 | 53.8 | −19.404 |  |  |  |  |  |  |  |  | 
C/C(=C\c1cccc(N(C)C2COC2)c1)[C@H]1OC(=O)C[C@H](O)CC[C@H](C)[C@@H](OC(=O)N2CCN(C)CC2)/C=C/[C@@H]1C [Compound 171] | 1.51 | 18800 | 42.6 | −92.998 |  |  | −50.083 |  |  |  |  |  |  |  | 23.6 | 19.6
C/C(=C\c1ccc2cn[nH]c2c1)[C@H]1OC(=O)C[C@H](O)CC[C@H](C)[C@@H](OC(=O)N2CCN(C)CC2)/C=C/[C@@H]1C [Compound 4] | 3.8 | > 25000 | 58.7 | −27.423 | 26.9 | 15.5 | −46.416 |  |  |  |  |  |  |  |  | 
C/C(=C\c1cccc2[nH]ncc12)[C@H]1OC(=O)C[C@H](O)CC[C@H](C)[C@@H](OC(=O)N2CCN(C)CC2)/C=C/[C@@H]1C [Compound 5] | 6.61 | 1500 | 94.7 | −17.631 | 47.2 | 59.7 | −38.293 |  |  |  |  |  |  |  |  | 
C/C(=C\c1ccc2nccn2c1)[C@H]1OC(=O)C[C@H](O)CC[C@H](C)[C@@H](OC(=O)N2CCN(C)CC2)/C=C/[C@@H]1C [Compound 88, [(2S,3S,4E,6R,7S,10R)-10-hydroxy-2-[(E)-1-imidazo[1,2-a]pyridin-6-ylprop-1-en-2-yl]-3,7-dimethyl-12-oxo-l-oxacyclododec-4-en-6-yl] 4-methylpiperazine-1-carboxylate] | 1.02 | > 25000 | 154 | −5.029 |  |  | −20.194 |  |  |  |  |  |  |  | 86.3 | 157
C/C(=C\c1cc(F)cc(N2CCN(C(=O)Cn3cccn3)CC2)c1)[C@H]1OC(=O)C[C@H](O)CC[C@H](C)[C@@H](OC(=O)N2CCN(C)CC2)/C=C/[C@@H]1C [Compound 122] | 5.5 | 18.8 | 14.3 | −70.057 | 2.1 | 2 | −85.128 |  |  |  |  |  |  |  |  | 
C/C(=C\c1cc(F)cc(N2CCN(C(=O)C3CCCCC3)CC2)c1)[C@H]1OC(=O)C[C@H](O)CC[C@H](C)[C@@H](OC(=O)N2CCN(C)CC2)/C=C/[C@@H]1C [Compound 114] | 18.2 | 103 | 39.1 | −82.856 |  |  | −87.102 |  |  |  |  |  |  |  | 12.3 | 9.35
